Biological target: T1, human vasopressin V2 receptor subtype (Homo sapiens, UniProt P30518)
T1 construct: host or cells: CHO cells, stably transfected (pZeoSV vector)
Assay: Vasopressin binding in CHO cell membranes expressing human vasopressin V2 subtype receptors ([3H]arginine vasopressin radioligand binding)
Conditions: 100 nM
Outline: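 Membranes from CHO cells stably expressing human V2 receptor (25 to 50 μg protein/well) incubated 60 min at room temperature with [3H]arginine vasopressin in Tris-HCl pH 7.4 buffer with MgCl2, BSA and protease inhibitors. Filtration, scintillation counting; percent inhibition at one concentration or IC50 (nM).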

T1 sequence (P30518 whole entry): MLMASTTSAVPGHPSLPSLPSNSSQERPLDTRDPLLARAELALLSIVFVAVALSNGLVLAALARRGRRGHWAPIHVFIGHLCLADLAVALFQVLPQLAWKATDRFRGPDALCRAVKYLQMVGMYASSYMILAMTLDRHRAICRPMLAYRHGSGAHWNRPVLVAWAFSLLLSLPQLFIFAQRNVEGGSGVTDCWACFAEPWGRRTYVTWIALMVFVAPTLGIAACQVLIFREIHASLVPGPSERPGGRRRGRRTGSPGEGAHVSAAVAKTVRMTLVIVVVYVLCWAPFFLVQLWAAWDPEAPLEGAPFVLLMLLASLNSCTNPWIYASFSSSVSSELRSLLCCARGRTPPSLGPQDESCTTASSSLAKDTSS

| Compound | inhibition at 0.1 µM |
| --- | --- |
| COc1cc(-c2ccccc2C)c(Cl)cc1C(=O)N1Cc2ccc(C(=O)NCc3ccccn3)n2Cc2ccccc21 [Example 29, 10-[(6-Chloro-3-methoxy-2′-methyl-[1,1′-biphenyl]-4-yl)carbonyl]-N-(2-pyridinylmethyl)-10,11-dihydro-5H-pyrrolo[2,1-c][1,4]benzodiazepine-3-carboxamide] | 12% |
| COc1cc(C(=O)N2Cc3ccc(C(=O)N(C)CCc4ccccn4)n3Cc3ccccc32)ccc1-n1c(C)ccc1C [Example 144, 10-[4-(2,5-Dimethyl-1H-pyrrol-1-yl)-3-methoxybenzoyl]-N-methyl-N-[2-(pyridin-2-yl)ethyl]-10,11-dihydro-5H-pyrrolo[2,1-c][1,4]benzodiazepine-3-carboxamide] | 2% |
| Cc1cc(C(=O)N2Cc3ccc(C(=O)N4CCCCC4c4cccnc4)n3Cc3ccccc32)ccc1-c1ccccc1C(F)(F)F (stereo not drawn) [Example 142, (10-{[2-Methyl-2′-trifluoromethyl-[1,1′-biphenyl]-4-yl]carbonyl}-10,11-dihydro-5H-pyrrolo[2,1-c][1,4]benzodiazepin-3-yl)[2-(3-pyridinyl)-1-piperidinyl]methanone] | 16% |
| COc1cc(C(=O)N2Cc3ccc(C(=O)NCc4ccccn4)n3Cc3ccccc32)ccc1-c1cccc2ccccc12 [Example 31, 10-[3-Methoxy-4-(naphthalen-1-yl)benzoyl]-N-(2-pyridinylmethyl)-10,11-dihydro-5H-pyrrolo[2,1-c][1,4]benzodiazepine-3-carboxamide] | 31% |

Other lines, results leading:

| inhibition at 0.1 µM | Compound |
| --- | --- |
| 11% | Cc1cc(C(=O)N2Cc3ccc(C(=O)N(C)CCc4ccncc4)n3Cc3ccccc32)ccc1-c1ccccc1C(F)(F)F [Example 137, N-Methyl-10-{[2-methyl-2′-trifluoromethyl-[1,1′-biphenyl]-4-yl]carbonyl}-N-[2-(4-pyridinyl)ethyl]-10,11-dihydro-5H-pyrrolo[2,1-c][1,4]benzodiazepine-3-carboxamide] |
| 0% | COc1cc(C(=O)N2Cc3ccc(C(=O)N(C)Cc4cccnc4)n3Cc3ccccc32)ccc1-c1cccc2ccccc12 [Example 109, 10-[3-Methoxy-4-(naphthalen-1-yl)benzoyl]-N-methyl-N-(3-pyridinylmethyl)-10,11-dihydro-5H-pyrrolo[2,1-c][1,4]benzodiazepine-3-carboxamide] |
| 1% | COc1cc(C(=O)N2Cc3ccc(C(=O)N(C)CCc4ccncc4)n3Cc3ccccc32)ccc1-c1cccc2ccccc12 [Example 134, 10-[3-Methoxy-4-(naphthalen-1-yl)benzoyl]-N-methyl-N-[2-(4-pyridinyl)ethyl]-10,11-dihydro-5H-pyrrolo[2,1-c][1,4]benzodiazepine-3-carboxamide] |
| -5% | COc1cc(C(=O)N2Cc3ccc(C(=O)N(C)CCc4ccncc4)n3Cc3ccccc32)ccc1-c1ccccc1C [Example 131, 10-[(2-Methoxy-2′-methyl-[1,1′-biphenyl]-4-yl)carbonyl]-N-methyl-N-[2-(4-pyridinyl)ethyl]-10,11-dihydro-5H-pyrrolo[2,1-c][1,4]benzodiazepine-3-carboxamide] |
| -10% | COc1cc(C(=O)N2Cc3ccc(C(=O)N(C)Cc4cccnc4)n3Cc3ccccc32)ccc1-c1ccccc1C [Example 106, 10-[(2-Methoxy-2′-methyl-[1,1′-biphenyl]-4-yl)carbonyl]-N-methyl-N-(3-pyridinylmethyl)-10,11-dihydro-5H-pyrrolo[2,1-c][1,4]benzodiazepine-3-carboxamide] |

From patent publication US7064120B2, “Tricyclic pyridyl carboxamides and derivatives thereof tocolytic oxytocin receptor antagonists” (Wyeth, priority 2001, dated 2006)
